Key:
CL1-5 lung cancer cells [1] = test: Cytotoxicity / cell growth, trypan blue exclusion; type: cell-based; conditions: 5 μM or 10 μM, 48 hours, FBS-free media
Procedure: To determine the effect of the synthesized membrane-permeable α-2,3-ST inhibitors disclosed in Example 1 on cellular processes, in vitro cytotoxicity and adhesion assays were performed on the highly metastatic lung cancer cell line CL1-5. CL1-5 cells were plated at 1×10^6 cells per 60 mm culture dish in DMEM containing 10% fetal bovine serum (FBS) in 5% CO2. The following day the media was replaced with FBS-free media containing inhibitors at 5 μM or 10 μM concentration in DMSO. Controls cells were treated with 0.1% DMSO-containing medium without inhibitor. Cell number and viability were determined 48 hours later by trypan blue exclusion. Treatment with three α-2,3-ST inhibitors, N-Pentyonic (compound 21), Lith-Triethyl-de (compound 20), and Lith-o-Asp (compound 13), inhibited CL1-5 cell growth by between 10-20% compared to control (FIG. 2A).

Rat liver α-2,3-ST = Rat liver α-2,3-ST (Rattus norvegicus (Rat), UniProt Q02734); test: α-2,3-ST inhibition assay (IC50), RP-HPLC of sialylated disaccharide product; type: biochemical; conditions: for IC50: α-2,3-ST, CMP-Neu5Ac substrate, triplicate, read-out: IC50
Procedure: Compound synthesis was carried out with the following materials according the following general procedures. All chemicals and buffers were purchased from Sigma, Aldrich, or Acros Organics; and all amino acids were purchased from Advanced Chemtech. CMP-Neu5Ac was synthesized starting with sialic acid (Traving & Schauer, Cell. Mol. Life Sci., 1998, 54:1330; Schwarzkopf et al., Proc. Natl. Acad. Sci. USA, 2002, 99:5267). Synthesis of lactose acceptor was achieved as described in Harduin-Lepers et al., Biochimie, 2001, 83:727. Rat liver α-2,3-ST was obtained from CalBiochem at a concentration of 3.7 mU/μL, stored at −80° C., and used within one week. Melting points (m.p.) were recorded with a capillary melting point apparatus (Electrothermal MEL-TEMP); FT-IR spectra were recorded with Perkin Elmer FT-IR Spectrometer (Paragon 1000) in KBr pellets; ^1H and ^13C NMR spectra were recorded with Bruker AMX400 or 500 MHz instruments. Proton chemical shifts (δ) are reported in parts per million (ppm) relative to the methine singlet at 7.24 ppm for the residual CHCl3 in the deuteriochloroform, or the methyl pentet at 3.30 ppm for the residual CHD2OD in the methanol-d4. Carbon chemical shifts are reported in ppm relative to the internal ^13C signals in CDCl3 (77.0 ppm) and CD3OD-d4 (49.0 ppm). Mass spectra were obtained with a FAB JMS-700 double focusing mass spectrometer (JEOL, Tokyo, Japan), MALDI Voyager DE-PRO (Applied Biosystem Houston, USA), and ESI Finnigan LCQ mass spectrometer (Thermo Finnigan, San Jose, Calif., United States) in negative mode. […] The separation procedure was performed using H2O/0.1% trifluoroacetic acid (TFA) (A) and CH3CN/0.05% TFA (B) as eluents.
(§1) Each compound was tested for α-2,3-ST inhibition using CMP-Neu5Ac as a substrate and a modified disaccharide with a 4,5-dimethoxy-2-nitrobenzyl group as a UV-labeled acceptor. Specifically, inhibition assays were performed in triplicate in reaction solution containing 200 mM MES buffer, 100 mM sodium chloride, 0.5 mM disodium-EDTA, 0.01% Triton X-100, 20 μM modified disaccharide, 1.4 mU α-2,3-ST and inhibitor (in dimethyl sulfoxide) in a total volume of 55. Reactions were incubated at 37° C. for 10 minutes at which point 1 mM CMP-Neu5Ac (to a final concentration 3 μM) was added. The solution was then incubated at 37° C. until a detectable amount of product was produced. The reaction was terminated by quenching the solution mixture with heat at 100° C. for 5 minutes. Enzyme activity was determined by monitoring the quantity of sialylated disaccharide product produced over time at 348 nm by RP-HPLC (Supelco Discovery® HS C18, 5 μm, 4.6 mm×25 cm).

[2] = tested on: α-2,3-sialylated antigens on CL1-1 cells; test: Cell surface α-2,3-sialylated antigens by FLOW cytometry (FITC-MAL), CL1-1; type: cell-based; conditions: both 5 μM and 20 μM, five days
Procedure: (§2) To determine whether α-2,3-ST inhibition alters cell surface glycosylation, lung cancer cells were treated with Lith-o-Asp and cell surface α-2,3-sialylated antigens were detected by FLOW cytometry. Cells were treated with α-2,3-ST inhibitor for five days after which 1×10^6 lung cancer cells were collected and washed twice with Hank's balanced salt solution (HBSS). Collected cells were incubated with FITC-conjugated MAL (1:50) at 37° C. for 15-20 minutes, non-binding MAL was removed by washing with HBSS, and 3×10^4 cells were detected on a FACScalibur instrument (Becton Dickinson). Two different lung cancer cell lines were tested: CL1-1 with low metastatic potential and CL1-5 with high metastatic potential. Since CL1-5 cells were derived from the CL1-1 line by an in vitro matrix gel invasion assay (Chen et al., Cancer Res., 2001, 61:5223), these cell lines share the same genetic background. Treatment of CL1-1 cells with Lith-o-Asp reduced expression of α-2,3-sialylated antigens to around 15% of DMSO treated control cells at both 5 μM and 20 μM (FIG. 4A). In contrast, Lith-o-Asp inhibited the expression of cell surface α-2,3-sialylated antigens in the highly metastatic CL1-5 lung cancer cells in a dose-dependent manner of greater than 15% (FIG. 4B).

CL1-5 lung cancer cells [3] = test: Wound healing (cell migration) assay; type: cell-based; conditions: 10 μM, 48 hours, vs DMSO control
Procedure: A section of cells was then scraped from the culture plate to form a gap, and cell migration into the “wound” was observation over 48 hours in the continuous presence of α-2,3-ST inhibitor.

[4] = tested on: α-2,3-sialylated antigens on CL1-5 cells; test: Cell surface α-2,3-sialylated antigens by FLOW cytometry (FITC-MAL), CL1-5; type: cell-based; conditions: dose-dependent, five days
Procedure: as §2

rat α-2,3-ST = rat α-2,3-ST (Rattus norvegicus (Rat), UniProt Q02734); test: Inhibition constant (Ki) determination, Lineweaver-Burk plot, varying CMP-Neu5Ac; type: biochemical; conditions: toward CMP-Neu5Ac
Procedure: as §1, with “cm). […]” for “cm).”
Reactions were prepared in inhibition assay reaction solution described above and were incubated for 10 minutes after which 0.3, 0.15, and 0.037 mM CMP-Neu5Ac was added in the presence of inhibitor at 5, 4.5, 3.5, 2.5, and 0 μM. […] The absolute Ki value was determined from the horizontal intercept of a Lineweaver-Burk plot with […] on the vertical axis and inhibitor concentration on the horizontal axis (FIG. 1).

α-2,3-ST = conditions: inhibition of α-2,3-ST, Hsu et al. 2005; cited from earlier work

Chain of Rat liver α-2,3-ST (Q02734 whole entry): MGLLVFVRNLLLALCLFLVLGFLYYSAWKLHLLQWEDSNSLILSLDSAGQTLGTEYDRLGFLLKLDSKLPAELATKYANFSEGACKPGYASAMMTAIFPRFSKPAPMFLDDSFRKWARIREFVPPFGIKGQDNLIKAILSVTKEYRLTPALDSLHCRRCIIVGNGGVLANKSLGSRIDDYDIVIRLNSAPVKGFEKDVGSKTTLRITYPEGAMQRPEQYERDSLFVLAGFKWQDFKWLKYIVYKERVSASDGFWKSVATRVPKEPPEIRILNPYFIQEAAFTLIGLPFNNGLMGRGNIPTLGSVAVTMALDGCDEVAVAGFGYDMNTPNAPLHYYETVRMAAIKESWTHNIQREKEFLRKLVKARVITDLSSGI
Chain of rat α-2,3-ST (Q02734 whole entry): as above

Row | Structure (SMILES) | inhibition of CL1-5 cell growth compared to control (CL1-5 lung cancer cells [1]) | fold potency over lithocholic acid (Rat liver α-2,3-ST; vs lithocholic acid) | IC50 (Rat liver α-2,3-ST) | expression of α-2,3-sialylated antigens, % of DMSO treated control cells [2] | migration ability of CL1-5 cells (CL1-5 lung cancer cells [3]; listed as Lith-O-Asp) | migration ability of CL1-5 cells (CL1-5 lung cancer cells [3]; listed as Lith-o-Asp) | inhibition of expression of cell surface α-2,3-sialylated antigens [4] | Ki (rat α-2,3-ST) | type of inhibition (rat α-2,3-ST) | Ki (α-2,3-ST)
1 | C[C@H](CCC(=O)O)C1CC[C@H]2C3CC[C@@H]4C[C@H](OC(=O)[C@@H](N)CC(=O)O)CC[C@]4(C)C3CC[C@]12C (stereo partly drawn) [Compound 13, (R)-4-((3R,5R,10S,13R,14S)-3-((S)-2-amino-3-carboxypropanoyloxy)-10,13-dimethyl-hexadecahydro-1H-cyclopenta[a]phenanthren-17-yl)pentanoic acid] | 10-20% | 2 fold | 12 µM | around 15% | inhibited cell migration | significantly decreased | greater than 15% | – | – | –
2 | C[C@H](CCCn1cc(CCCC(=O)O)nn1)C1CC[C@H]2C3CC[C@@H]4C[C@H](O)CC[C@]4(C)C3CC[C@]12C (stereo partly drawn) [Compound 22, 4-(1-((R)-4-((3R,5R,10S,13R,14S)-3-hydroxy-10,13-dimethyl-hexadecahydro-1H-cyclopenta[a]phenanthren-17-yl)pentyl)-1H-1,2,3-triazol-4-yl)butanoic acid] | – | – | 5 µM | – | – | – | – | 2.2 µM | noncompetitive inhibition | –
3 | C[C@@H]1O[C@@H](O[C@H]2[C@H](O[C@H]3[C@H](O[C@H]4CC[C@@]5(C)[C@@H](CC[C@]6(C)[C@@H]5CC=C5[C@@H]7CC(C)(C)C[C@@H](O)[C@]7(C)CC[C@]56C)[C@@]4(C)CO)O[C@H](C(=O)O)[C@@H](O)[C@@H]3O)O[C@H](CO)[C@H](O)[C@@H]2O)[C@H](O)[C@H](O)[C@H]1O [Soyasaponin I] | – | – | – | – | – | – | – | – | – | 2100 µM
